Converted amounts (≈) assume the structure as drawn. The source made the active and inactive calls. No cut-off for these calls is given here.
Key:
[1] = tested on: Lipaphis erysimi; test: Insecticidal activity against Lipaphis erysimi Kaltenbach; assay type: functional
[2] = tested on: U2OS; test: Cytotoxicity against human U2OS cells after 36 hrs by MTT assay; assay type: functional, cell-based
[3] = tested on: MCF7; test: Cytotoxicity against human MCF7 cells after 36 hrs by MTT assay; assay type: functional, cell-based; details: MCF7, 36 h
[4] = tested on: P388; test: Cytotoxicity against mouse P388 cells; assay type: functional; details: read-out: ED50 (the source's name)

Row | Structure (SMILES) | Activity [1] | IC50 [2] [µg/mL] | IC50 [3] [µg/mL] | EC50 [4] [µg/mL]
1 | C=C(C)[C@H](CC[C@H]1C(=O)O[C@H]2C[C@]3(C)C4=CC[C@H]5C(C)(C)C(=O)CC[C@]5(C)[C@H]4CC[C@@]3(C)[C@@H]21)OO [MELIASENIN N] | inactive | 8.8 (≈ 18.2 µM) | 3 (≈ 6.19 µM) | 
2 | CC[C@H](CC[C@](C)(O)[C@H]1[C@@H](O)C[C@H]2[C@@H]3[C@H](O)C=C4C[C@@H](O)CC[C@]4(C)[C@H]3CC[C@@]21C)C(C)C | inactive | 23.2 (≈ 50.1 µM) | > 50 | 
3 | CC(C)C(C)CC[C@](C)(O)[C@H]1[C@@H](O)C[C@H]2[C@@H]3[C@H](O)C=C4C[C@@H](O)CC[C@]4(C)[C@H]3CC[C@@]21C (single isomer, unassigned) | inactive | 9.4 (≈ 20.9 µM) | 47.4 (≈ 106 µM) | 
4 | CC(C)(/C=C/C[C@H]1C(=O)O[C@H]2C[C@]3(C)C4=CC[C@H]5C(C)(C)C(=O)CC[C@]5(C)[C@H]4CC[C@@]3(C)[C@@H]21)OO [MELIASENIN M] | inactive | 29.2 (≈ 60.2 µM) | 16.4 (≈ 33.8 µM) | 
5 | O=c1[nH]cc(F)c(=O)[nH]1 [FLUOROURACIL] |  | 7.2 (≈ 55.4 µM) | 34 (≈ 261 µM) | 
6 | COC(=O)[C@H](CCC=C(C)C)[C@@H]1[C@@H](O)C[C@]2(C)C3=CC[C@H]4C(C)(C)C(=O)CC[C@]4(C)[C@H]3CC[C@@]12C [METHYL KULONATE] | inactive | 14.6 (≈ 30.1 µM) | 0.41 (≈ 0.846 µM) | 1.7 (≈ 3.51 µM)
7 | C=C(C)C(O)CC[C@@H](C)[C@@H]1[C@@H](O)C[C@]2(C)C3=CC[C@H]4C(C)(C)C(=O)CC[C@]4(C)[C@H]3CC[C@@]12C (stereo partly specified) [MELIASTATIN 5] | inactive | 9.5 (≈ 20.8 µM) | 16 (≈ 35 µM) | 1.7 (≈ 3.72 µM)
8 | C=C(C)C(CC[C@@H](C)[C@@H]1[C@@H](O)C[C@]2(C)C3=CC[C@H]4C(C)(C)C(=O)CC[C@]4(C)[C@H]3CC[C@@]12C)OO (mixture of isomers) [MELIASENIN L] | inactive | 9.5 | 9.8 | 
9 | C[C@H](C/C=C/C(C)(C)OO)[C@@H]1[C@@H](O)C[C@]2(C)C3=CC[C@H]4C(C)(C)[C@@H](O)CC[C@]4(C)[C@H]3CC[C@@]12C (relative stereo) [MELIASENIN I] | inactive | 9.5 (≈ 20 µM) | 11.2 (≈ 23.6 µM) | 
10 | C[C@H](C/C=C/C(C)(C)OO)[C@@H]1[C@@H](O)C[C@]2(C)C3=CC[C@H]4C(C)(C)C(=O)CC[C@]4(C)[C@H]3CC[C@@]12C (relative stereo) [MELIASENIN J] | inactive | 14.3 (≈ 30.3 µM) | 1.1 (≈ 2.33 µM) | 
11 | COC(=O)[C@H](C/C=C/C(C)(C)OO)[C@@H]1[C@@H](O)C[C@]2(C)C3=CC[C@H]4C(C)(C)C(=O)CC[C@]4(C)[C@H]3CC[C@@]12C [MELIASTATIN 3] | inactive | 31.1 (≈ 60.2 µM) | 48.6 (≈ 94.1 µM) | 1.7 (≈ 3.29 µM)
12 | CCCCCCCCCCCCCCCC(=O)O[C@H]1CC[C@]2(C)[C@H]3CC[C@@]4(C)[C@H]([C@@H]5C[C@H]([C@H](O)C(C)(C)O)O[C@@H]5OC)CC[C@]4(C)C3=CC[C@H]2C1(C)C [MELIASENIN Q] | inactive | 3.9 (≈ 5.25 µM) | > 50 | 
13 | CC(C)=CCC[C@@H](C)[C@@H]1[C@@H](O)C[C@]2(C)C3=CC[C@H]4C(C)(C)C(=O)CC[C@]4(C)[C@H]3CC[C@@]12C [KULINONE] | inactive | 6.9 (≈ 15.7 µM) | 42.5 (≈ 96.4 µM) | 1.7 (≈ 3.86 µM)
14 | C=C(C)C(CC[C@@H](C)[C@@H]1[C@@H](O)C[C@]2(C)C3=CC[C@H]4C(C)(C)CCC[C@]4(C)[C@H]3CC[C@@]12C)OO (mixture of isomers) [MELIASENIN K] | inactive | 7.2 | 2.4 | 
15 | CO[C@H]1O[C@@H]([C@@H]2OC2(C)C)C[C@H]1[C@@H]1CC[C@]2(C)C3=CC[C@H]4C(C)(C)[C@@H](O)CC[C@]4(C)[C@H]3CC[C@@]12C [MELIASENIN P] | inactive | 48.7 (≈ 100 µM) | 6.4 (≈ 13.1 µM) | 
16 | C=C(C)[C@@H](CC[C@H]1C(=O)O[C@H]2C[C@]3(C)C4=CC[C@H]5C(C)(C)C(=O)CC[C@]5(C)[C@H]4CC[C@@]3(C)[C@@H]21)OO [MELIASENIN O] | inactive | 23.9 (≈ 49.3 µM) | 2.3 (≈ 4.75 µM) | 
